In PubChem BioAssay (NCI):
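Values below derive from 48-hour exposures of cells grown in 96-well plates, with endpoints linearly interpolated between the two concentrations bracketing the appropriate inhibition level. Definition used: TGI = concentration required for complete inhibition of growth.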

Experiments:
Assay in all cases: growth of human tumour cells (NCI), 48 h
[1] = system: 786-0 renal
[2] = system: A498 renal
[3] = system: A549 NSCLC
[4] = system: ACHN renal
[5] = system: BT-549 breast
[6] = system: CAKI-1 renal
[7] = system: CCRF-CEM leukemia
[8] = system: COLO 205 colon
[9] = system: DLD-1 colon
[10] = system: DMS 114 small cell lung
[11] = system: DMS 273 small cell lung
[12] = system: DU-145 prostate
[13] = system: EKVX NSCLC
[14] = system: HCC-2998 colon
[15] = system: HCT-116 colon
[16] = system: HCT-15 colon
[17] = system: HL-60(TB) leukemia
[18] = system: HOP-18 NSCLC
[19] = system: HOP-62 NSCLC
[20] = system: HOP-92 NSCLC
[21] = system: HS 578T breast
[22] = system: HT29 colon
[23] = system: IGROV1 ovarian
[24] = system: K-562 leukemia
[25] = system: KM12 colon
[26] = system: KM20L2 colon
[27] = system: LOX IMVI melanoma
[28] = system: LXFL 529 NSCLC
[29] = system: M14 melanoma
[30] = system: M19-MEL melanoma
[31] = system: MALME-3M melanoma
[32] = system: MCF7 breast
[33] = system: MDA-MB-231 breast
[34] = system: MDA-MB-435
[35] = system: MDA-N
[36] = system: MOLT-4 leukemia
[37] = system: NCI-H226 lung
[38] = system: NCI-H23 lung
[39] = system: NCI-H460 lung
[40] = system: NCI-H522 lung
[41] = system: NCI/ADR-RES ovarian
[42] = system: OVCAR-3 ovarian
[43] = system: OVCAR-4 ovarian
[44] = system: OVCAR-5 ovarian
[45] = system: OVCAR-8 ovarian
[46] = system: PC-3 prostate
[47] = system: RPMI-8226 leukemia
[48] = system: RXF 393 renal
[49] = system: RXF-631 renal
[50] = system: SF-268 CNS
[51] = system: SF-295 CNS
[52] = system: SF-539 CNS
[53] = system: SK-MEL-2 melanoma
[54] = system: SK-MEL-28 melanoma
[55] = system: SK-MEL-5 melanoma
[56] = system: SK-OV-3 ovarian
[57] = system: SN12C renal
[58] = system: SNB-19 CNS
[59] = system: SNB-75 CNS
[60] = system: SNB-78 CNS
[61] = system: SR leukemia
[62] = system: SW-620 colon
[63] = system: T-47D breast
[64] = system: TK-10 renal
[65] = system: U251 CNS
[66] = system: UACC-257 melanoma
[67] = system: UACC-62 melanoma
[68] = system: UO-31 renal
[69] = system: XF 498 CNS

Q: With NC(N)=NCCCS(=O)(=O)Nc1ccc(Nc2c3ccccc3nc3cc([N+](=O)[O-])ccc23)cc1 as the compound, how does the TGI [1] read?
A: Its TGI is 53.2 µM.

Q: What about the TGI [2] of the same compound?
A: Its TGI is 65.8 µM.

Q: And the TGI [3]?
A: Its TGI is 36.6 µM.

Q: And the TGI [4]?
A: Its TGI is 63 µM.

Q: What about the TGI [5] of the same compound?
A: The TGI was 94.4 µM.

Q: What about the TGI [6] of the same compound?
A: Its TGI is > 93.5 µM.

Q: And the TGI [7]?
A: Its TGI is > 74.9 µM.

Q: What about the TGI [8] of the same compound?
A: The TGI was 56.2 µM.

Q: And the TGI [9]?
A: The TGI was > 93.4 µM.

Q: And the TGI [10]?
A: The TGI was 28.8 µM.

Q: And the TGI [11]?
A: Its TGI is 37.2 µM.

Q: And the TGI [12]?
A: The TGI was 25.2 µM.

Q: And the TGI [13]?
A: Its TGI is 70.7 µM.

Q: And the TGI [14]?
A: The TGI was 44.1 µM.

Q: What about the TGI [15] of the same compound?
A: Its TGI is 63.5 µM.

Q: What about the TGI [16] of the same compound?
A: Its TGI is > 100 µM.

Q: And the TGI [17]?
A: The TGI was > 82.4 µM.

Q: And the TGI [18]?
A: Its TGI is 58.7 µM.

Q: And the TGI [19]?
A: Its TGI is 39.3 µM.

Q: And the TGI [20]?
A: The TGI was 28.5 µM.

Q: What about the TGI [21] of the same compound?
A: The TGI was 50.9 µM.

Q: And the TGI [22]?
A: The TGI was 55 µM.

Q: What about the TGI [23] of the same compound?
A: The TGI was 79.5 µM.

Q: And the TGI [24]?
A: The TGI was > 89.7 µM.

Q: And the TGI [25]?
A: The TGI was 51.4 µM.

Q: What about the TGI [26] of the same compound?
A: The TGI was > 76.2 µM.

Q: What about the TGI [27] of the same compound?
A: Its TGI is > 75.7 µM.

Q: What about the TGI [28] of the same compound?
A: The TGI was 29.9 µM.

Q: And the TGI [29]?
A: The TGI was > 87.2 µM.

Q: What about the TGI [30] of the same compound?
A: Its TGI is 24.1 µM.

Q: What about the TGI [31] of the same compound?
A: Its TGI is 37.2 µM.

Q: And the TGI [32]?
A: Its TGI is 87.7 µM.

Q: What about the TGI [33] of the same compound?
A: Its TGI is 66.5 µM.

Q: What about the TGI [34] of the same compound?
A: Its TGI is > 100 µM.

Q: And the TGI [35]?
A: Its TGI is 81.1 µM.

Q: What about the TGI [36] of the same compound?
A: The TGI was 43.6 µM.

Q: And the TGI [37]?
A: Its TGI is 45.5 µM.

Q: And the TGI [38]?
A: Its TGI is 35.6 µM.

Q: What about the TGI [39] of the same compound?
A: Its TGI is 33 µM.

Q: And the TGI [40]?
A: Its TGI is 61 µM.

Q: What about the TGI [41] of the same compound?
A: The TGI was 58.8 µM.

Q: And the TGI [42]?
A: The TGI was 66.4 µM.

Q: And the TGI [43]?
A: The TGI was 48.9 µM.

Q: What about the TGI [44] of the same compound?
A: The TGI was > 74.1 µM.

Q: And the TGI [45]?
A: Its TGI is > 92.9 µM.

Q: And the TGI [46]?
A: Its TGI is 67.9 µM.

Q: What about the TGI [47] of the same compound?
A: The TGI was 66.6 µM.

Q: What about the TGI [48] of the same compound?
A: The TGI was 67.2 µM.

Q: What about the TGI [49] of the same compound?
A: The TGI was > 100 µM.

Q: What about the TGI [50] of the same compound?
A: Its TGI is 35.6 µM.

Q: And the TGI [51]?
A: The TGI was 59 µM.

Q: What about the TGI [52] of the same compound?
A: Its TGI is 52.1 µM.

Q: And the TGI [53]?
A: Its TGI is 66.1 µM.

Q: What about the TGI [54] of the same compound?
A: Its TGI is 40.7 µM.

Q: What about the TGI [55] of the same compound?
A: Its TGI is 45.3 µM.

Q: And the TGI [56]?
A: The TGI was 55.5 µM.

Q: And the TGI [57]?
A: The TGI was 60.9 µM.

Q: And the TGI [58]?
A: Its TGI is 28.8 µM.

Q: What about the TGI [59] of the same compound?
A: Its TGI is 45.8 µM.

Q: What about the TGI [60] of the same compound?
A: The TGI was > 63.5 µM.

Q: And the TGI [61]?
A: The TGI was > 100 µM.

Q: What about the TGI [62] of the same compound?
A: The TGI was 58 µM.

Q: What about the TGI [63] of the same compound?
A: The TGI was 11.4 µM.

Q: What about the TGI [64] of the same compound?
A: Its TGI is > 84.5 µM.

Q: What about the TGI [65] of the same compound?
A: Its TGI is 29.5 µM.

Q: And the TGI [66]?
A: The TGI was 68.1 µM.

Q: What about the TGI [67] of the same compound?
A: Its TGI is 51.7 µM.

Q: What about the TGI [68] of the same compound?
A: Its TGI is > 100 µM.

Q: What about the TGI [69] of the same compound?
A: The TGI was 27.9 µM.

Q: Which results are given for CCN1N=CSC12C(=O)N(c1ccccc1)C(=O)N2c1ccccc1 (configuration not stated)?
A: TGI [1]: > 100 µM; TGI [2]: > 100 µM; TGI [3]: > 100 µM; TGI [4]: > 100 µM; TGI [6]: > 100 µM; TGI [7]: > 100 µM; TGI [8]: > 100 µM; TGI [9]: > 100 µM; TGI [10]: > 100 µM; TGI [13]: > 100 µM; TGI [14]: > 100 µM; TGI [15]: > 100 µM; TGI [17]: > 100 µM; TGI [18]: > 100 µM; TGI [19]: > 100 µM; TGI [20]: > 100 µM; TGI [22]: > 100 µM; TGI [23]: > 100 µM; TGI [24]: > 100 µM; TGI [25]: > 100 µM; TGI [26]: > 100 µM; TGI [27]: > 100 µM; TGI [28]: > 100 µM; TGI [29]: > 100 µM; TGI [31]: > 100 µM; TGI [36]: > 100 µM; TGI [37]: > 100 µM; TGI [38]: > 100 µM; TGI [39]: > 100 µM; TGI [40]: > 100 µM; TGI [42]: > 100 µM; TGI [43]: > 100 µM; TGI [45]: > 100 µM; TGI [48]: > 100 µM; TGI [49]: > 100 µM; TGI [50]: > 100 µM; TGI [51]: > 100 µM; TGI [52]: > 100 µM; TGI [54]: > 100 µM; TGI [55]: > 100 µM; TGI [56]: > 100 µM; TGI [57]: > 100 µM; TGI [58]: > 100 µM; TGI [59]: > 100 µM; TGI [60]: > 100 µM; TGI [61]: > 100 µM; TGI [62]: > 100 µM; TGI [64]: > 100 µM; TGI [65]: > 100 µM; TGI [66]: > 100 µM; TGI [67]: > 100 µM; TGI [68]: > 100 µM; TGI [69]: > 100 µM
